US9938320B2, “Peptides for promoting angiogenesis and use thereof” (INDUSTRY-ACADEMIC COOPERATION FOUNDATION, SOOKMYUNG WOMEN'S …, priority 2010, dated 2018)

How the values were obtained:
[1] = tested on: HUVECs; assay: Migration of HUVECs through polycarbonate filter chamber; type: cell-based, human; conditions: 37° C. for 10 hours, negative control (untreated) = 100
Description: In order to investigate the effect of the 4 peptides prepared in Example 1 on blood vessel formation, migration of HUVECs was measured.
The bottom portion of a chamber of a 24-well plate (Corning Costar, USA) having a polycarbonate filter with pores therebelow was coated with 0.5 mg/mL collagen type 1 ([…]). After adding EBM-2 containing the 4 peptides of the peptide of the present invention to the bottom portion of the chamber, HUVECs were inoculated at the upper portion of the chamber, with 1×10^5 cells per well. After incubation at 37° C. for 10 hours, the cells that had passed through the polycarbonate filter were fixed with methanol, stained with hematoxylin, and counted under a microscope.

[2] = tested on: human umbilical vein endothelial cells (HUVECs); assay: Proliferation of HUVECs (CyQUANT kit); type: cell-based; conditions: 48 hours with peptide, negative control (untreated) = 100
Description: In order to investigate the effect of the 4 peptides prepared in Example 1 on blood vessel formation, human umbilical vein endothelial cells (HUVECs) were treated with the peptide of the present invention and their proliferation was observed.
HUVECs were cultured in endothelial cell basal medium-2 (EBM-2, Clonetics Co., San Diego, USA) containing 2% fetal bovine serum (FBS). The cultured HUVECs were transferred to a 96-well plate, with 1000 cells per each well. After culturing for 24 hours followed by addition of the 4 peptides of the peptide of the present invention to each well, they were further cultured for 48 hours. The cells treated with VEGF instead of the peptide of the present invention and those treated with nothing were cultured under the same condition, as positive control group and negative control group, respectively. Upon completion of the culturing, the degree of cell proliferation was measured using the CyQUANT kit (Invitrogen, USA).

| Substance | Cell migration (%) [1] [%] | Cell proliferation (%) [2] [%] |
| --- | --- | --- |
| NQES (Pep_10 Artificial Peptide for Promotion of Angiogenesis) | 173.2 | 146.5 |
| PKES (Pep_9 Artificial Peptide for Promotion of Angiogenesis) | 156.4 | 212.5 |
| SDRGA (Pep_8 Artificial Peptide for Promotion of Angiogenesis) | 147.0 | 209.2 |
| SEGQK (Pep_7 Artificial Peptide for Promotion of Angiogenesis) | 155.4 | 203.3 |
| VEGF | 146.3 | 166.0 |
